{
  "source": "patent US8129383B2",
  "about": "“Aminopterin dosage forms and methods for inflammatory disorders” (Aminopterin LLC, priority 2005, dated 2012)",
  "key": {"canine atopic dermatitis": {"system": "canine atopic dermatitis", "details": "oral about 0.2 mg/kg/week", "protocol": "[…] Subjects were assessed at baseline and at weeks 2 and 4 of the trial, and every other week of the 1-year extension phase.\nSubjects were assessed at baseline and at weeks 2 and 4."}, "[1]": {"system": "neutrophils that accumulated in the carrageenan-treated air pouches", "details": "weekly ip injection days 1, 7, 14, 21; carrageenan day 22, exudate after 4 hours", "protocol": "J. Clin. Invest., 1993. 92(6):2675-82].\nA separate group of 5 animals was given vehicle by ip injection on the same days (0.9% saline, control, n=5). On day 16, air pouches were induced on the animals by injecting 3 ml of air subcutaneously on the back. On day 22 (i.e. one day after the last dose of drug or vehicle), inflammation was induced by injection of 1 ml of a suspension of carrageenan (2% weight/volume in calcium- and magnesium-free PBS). The mice were put back in their cages and allowed to run free for 4 hours. […] After 4 hours, the animals were sacrificed, the pouches flushed with 2 ml of PBS and the exudates harvested. Aliquots were diluted 1:1 with methylene blue (0.01% w/v in PBS), and the cells were counted."}, "[2]": {"system": "carrageenan-induced inflammation in air pouches", "assay": "duration of efficacy in the murine air-pouch model after cessation of 4 weeks of dosing", "format": "in vivo, mice", "details": "aminopterin 0.05 mg/kg, methotrexate 1.0 mg/kg", "protocol": "We therefore examined the rate at which anti-inflammatory activity was lost in the air-pouch model after the cessation of 4 weeks of dosing at the maximally efficacious dose (FIG. 2).\nOn day 25 the air pouches were re-inflated with 1.5 ml of air. Pouches were re-inflated as needed to maintain them."}, "ma104 cells": {"system": "ma104 cells", "details": "read-out: EC50 of adenosine release (prior art); Cronstein'91; cited from earlier work"}, "[3]": {"system": "influx of neutrophils (PMNs) in hyperoxia", "assay": "rat oxygen-toxicity model of bronchopulmonary dysplasia", "format": "in vivo, rats", "details": "single 0.35 mg/kg ip day 2 after birth, 95% oxygen, sacrifice day 8", "description": "Mason, S, N.; Richard L. Auten, J. Lung inflammation in hyperoxia can be prevented by antichemokine treatment in newborn rats. American Journal of Respiratory Critical Care Medicine 2000, 162, 2316-2323]. […] Litter sizes were the same. […] Dams were rotated daily between air and oxygen cages to avoid maternal oxygen toxicity. On day 8, the pups were weighed and then euthanized, tracheas are cannulated and the pulmonary artery is perfused with saline. Bronchoalveolar lavage fluid (BALF) was then obtained for cell count and chemokine analysis (FIG. 3). The lungs were removed and snap frozen for myeloperoxidase activity assay (neutrophil accumulation within lung parenchyma) and 8-isoprostane, a marker of lipid oxidation. The pulmonary artery was perfused and the lungs were inflation-fixed with buffered formalin at 25 cm H2O."}},
  "data": [
    {"smiles": "CN(Cc1cnc2nc(N)nc(N)c2n1)c1ccc(C(=O)N[C@@H](CCC(=O)O)C(=O)O)cc1", "note": "[methotrexate]", "values": [
      {"measurement": "time to produce efficacy compared to aminopterin", "setting": "canine atopic dermatitis; 4-week trial", "value": "took longer to produce efficacy compared to aminopterin"},
      {"measurement": "outcome of the five treated dogs", "setting": "canine atopic dermatitis; assessed at weeks 2 and 4", "value": "Three dogs did not do well, one had not improved as of the last assessment and one dog improved markedly"},
      {"measurement": "EC50 for diminishing the number of neutrophils accumulated in carrageenan-treated air pouches", "setting": "[1]", "value": 0.04, "unit": "mg/kg/wk"},
      {"measurement": "difference between aminopterin and methotrexate in rate of recovery of inflammation", "setting": "[2]; 8, 12 or 22 days after last of 4 weekly ip doses", "value": "no statistically significant difference"},
      {"measurement": "duration of action", "setting": "[2]; after last of 4 weekly ip doses", "value": "quite long"},
      {"measurement": "EC50", "setting": "ma104 cells", "value": "~1", "unit": "nM"},
      {"measurement": "influx of neutrophils in bronchoalveolar lavage fluid", "setting": "[3]", "value": "failed to reduce the influx of neutrophils"}
    ]}
  ]
}
